Assay results published in US7939509B2, “Partial and full agonists of A1 adenosine receptors” (Gilead Sciences, Inc., priority 2002, dated 2011).
Entries after “also recorded” stand apart in the source; their conditions may differ.

Columns and labels:
rats fed high fat diet [1] = test: Oral glucose tolerance test after 2 week treatment in high fat diet rats; type: in vivo, rat; settings: 5 mg/kg SC twice a day for 2 weeks, HF rats
Protocol: Animals were fasted overnight before taking samples. Compound A was given twice daily via a SC injection for 2 weeks at a dose of 5 mg/kg. Data is presented as mean±SEM from number of animals indicated in the parenthesis for each group. […] All experimental procedures were performed under a protocol approved by the IACUC (CV Therapeutics, Inc.) and in accordance with the recommendations set forth in the Guide for the Care and Use of Laboratory Animals published by the National Research Council. Male Sprague-Dawley rats (225-250 gm) with either one or two indwelling catheters (carotid and jugular) were obtained from Charles River Laboratories (Wilmington, Mass.). Animals were housed 1 per cage in a room maintained on a 12 h light/dark cycle (light on 06.00-18.00 h) under constant temperature (22-25° C.) and with ad libitum access to food and water. Rats on normal diet (Chow) were fed standard laboratory chow (12% fat, 60% carbohydrate, and 28% protein) throughout the study, while animals in the high fat (HF) diet group were given a diet (TD88137 from Harlan Teklad, Madison, Wis.) containing 42% fat, 43% carbohydrate, and 15% protein. […] On the day of the experiment, animals were put in metabolic cages and left undisturbed to acclimate to the environment for 1-2 hrs. An infusion set (21 G×¾″, 0.8×19 mm U.T.W., 3½″, 9 cm tubing, volume 0.15 ml) was connected to the arterial catheter for blood sampling. A 1% sodium citrate saline solution was used to flush the lines. A pre-treatment blood sample was obtained from each animal to determine baseline values for glucose, insulin, FFA and TG. Blood samples were collected into plasma and serum separator tubes (Becton Dickinson, Franklin Lakes, N.J.) at pre-determined time points. Oral glucose tolerance test (OGTT) was performed by giving 2 gm/kg of glucose load. […] For chronic experiments Compound A was administered twice a day via subcutaneous injection at a dose of 5 mg/kg for 2 weeks. […] Data form OGTT was analyzed by calculating area under the curve (AUC) using prism graphpad software. […]

rats fed high fat diet [2] = test: Chronic 2 week treatment: fasting glucose, insulin, FFA, TG in high fat diet rats; type: in vivo, rat; settings: 5 mg/kg SC for 2 weeks, HF rats
Protocol: Animals were fasted overnight before taking samples. Compound A was given via SC injection for 2 weeks at a dose of 5 mg/kg. Data is presented as mean±SEM from number of animals indicated below each bar. […] Male Sprague-Dawley rats (225-250 gm) with either one or two indwelling catheters (carotid and jugular) were obtained from Charles River Laboratories (Wilmington, Mass.). Animals were housed 1 per cage in a room maintained on a 12 h light/dark cycle (light on 06.00-18.00 h) under constant temperature (22-25° C.) and with ad libitum access to food and water. Rats on normal diet (Chow) were fed standard laboratory chow (12% fat, 60% carbohydrate, and 28% protein) throughout the study, while animals in the high fat (HF) diet group were given a diet (TD88137 from Harlan Teklad, Madison, Wis.) containing 42% fat, 43% carbohydrate, and 15% protein. The anti-lipolytic effects of Compound A (see chemical name below) were studied in awake rats. On the day of the experiment, animals were put in metabolic cages and left undisturbed to acclimate to the environment for 1-2 hrs. An infusion set (21 G×¾″, 0.8×19 mm U.T.W., 3½″, 9 cm tubing, volume 0.15 ml) was connected to the arterial catheter for blood sampling. A 1% sodium citrate saline solution was used to flush the lines. A pre-treatment blood sample was obtained from each animal to determine baseline values for glucose, insulin, FFA and TG. Blood samples were collected into plasma and serum separator tubes (Becton Dickinson, Franklin Lakes, N.J.) at pre-determined time points. […] For chronic experiments Compound A was administered twice a day via subcutaneous injection at a dose of 5 mg/kg for 2 weeks. […] Statistical analysis of data from experiments with 2 treatment groups was performed using the unpaired Student's t-test. One way analysis of variance (ANOVA) followed by Newman-Keuls posthoc analysis was used for multiple comparisons. […] Differences between/among treatment groups were considered to be significant when the probability of their occurrence by chance alone was <0.05.

awake rats = test: Cardiovascular measurements (heart rate, blood pressure) by telemetry in awake rats; type: in vivo, rat
Protocol: FIG. 7 presents the time-course of the effect of Compound A on (A) heart rate and (B) mean arterial pressure in awake rats as measured by telemetry. Compound A was given at various does (1, 5, and 25 mg·kg) by oral gavage at time 0. Each data point is the mean of individual values from the number of experiments indicated in parenthesis. The initial transient (10 Minutes) increase in heart rate subsequent to the injection of vehicle or Compound A is due to the stress caused by handling of the animals.
The effects of Compound A on heart rate and blood pressure were determined in a separate group of animals as heart rate is very easily affected in the un-anesthetized animal by animal handling and blood sampling. Rats were instrumented with radiotelemetered transmitters (Data Sciences) at least 3 weeks prior to experimentation. The ECG, blood pressure and temperature were recorded and heart rate calculated using a Dataquest ART Gold system (Version 2.2; Data Sciences Intl). The system consisted of a transmitter, i.e., biopotential sensor (Model TL11M2-C50-PXT), receivers (Model RPC-1), a consolidation matrix (BCM 100), a personal computer (Compaq DeskPro Series 3574) and Dataquest 4 software. Heart rate, blood pressure and temperature were measured at 5-minute intervals. Each recording lasted 10 seconds and all cardiac cycles within this period were averaged.

rats fed high fat diet [3] = test: Oral glucose tolerance test after a single dose in high fat diet rats; type: in vivo, rat; settings: 1 mg/kg oral gavage 15 min before 2 gm/kg glucose load, HF rats
Protocol: Data is presented as mean±SEM from number of animals indicated in the parenthesis for each group. […] All experimental procedures were performed under a protocol approved by the IACUC (CV Therapeutics, Inc.) and in accordance with the recommendations set forth in the Guide for the Care and Use of Laboratory Animals published by the National Research Council. Male Sprague-Dawley rats (225-250 gm) with either one or two indwelling catheters (carotid and jugular) were obtained from Charles River Laboratories (Wilmington, Mass.). Animals were housed 1 per cage in a room maintained on a 12 h light/dark cycle (light on 06.00-18.00 h) under constant temperature (22-25° C.) and with ad libitum access to food and water. Rats on normal diet (Chow) were fed standard laboratory chow (12% fat, 60% carbohydrate, and 28% protein) throughout the study, while animals in the high fat (HF) diet group were given a diet (TD88137 from Harlan Teklad, Madison, Wis.) containing 42% fat, 43% carbohydrate, and 15% protein. […] On the day of the experiment, animals were put in metabolic cages and left undisturbed to acclimate to the environment for 1-2 hrs. An infusion set (21 G×¾″, 0.8×19 mm U.T.W., 3½″, 9 cm tubing, volume 0.15 ml) was connected to the arterial catheter for blood sampling. A 1% sodium citrate saline solution was used to flush the lines. A pre-treatment blood sample was obtained from each animal to determine baseline values for glucose, insulin, FFA and TG. Blood samples were collected into plasma and serum separator tubes (Becton Dickinson, Franklin Lakes, N.J.) at pre-determined time points. Oral glucose tolerance test (OGTT) was performed by giving 2 gm/kg of glucose load. Compound A was given via an oral gavage 15 minutes prior to the glucose load. […] Statistical analysis of data from experiments with 2 treatment groups was performed using the unpaired Student's t-test. One way analysis of variance (ANOVA) followed by Newman-Keuls posthoc analysis was used for multiple comparisons. Data form OGTT was analyzed by calculating area under the curve (AUC) using prism graphpad software. […]

C57BL/J6 mice = test: Hyperinsulinemic euglycemic clamp in C57BL/J6 mice on high fat diet for 12 weeks; type: in vivo, mouse; settings: 2.5 mg/kg or 5.0 mg/kg ip 15 min prior to clamp
Protocol: C57BL/J6 mice were maintained on normal chow or a HF diet (Bovine Lard, 23 wt/wt %, 44 energy % provided by the lard) for 12 weeks to induce insulin resistance. At the end of 12 weeks a hyperinsulinemic euglycemic clamp analysis was performed to measure insulin sensitivity in the absence and presence of Compound A. Compound A was given via an ip injection 15 minutes before the clamp protocol was started. After an overnight fast, glucose turnover studies were performed as described previously (6; 11). Briefly, animals were anesthetized; an infusion needle was placed in one of the tail veins. Thereafter, a bolus of insulin was given and a hyperinsulinemic clamp was started by continuous infusion of insulin. Blood samples were taken every 10 minutes (tail bleeding) to monitor plasma glucose levels. A variable infusion of 12.5% D-glucose (in PBS) solution was started at time 0 and adjusted to maintain blood glucose at ˜6.0 mM. When steady state glucose levels were reached (approximately 1 hour after start of the insulin infusion) a final blood sample was taken (for measurement of plasma insulin) and the hyperinsulinemic euglycemic clamp was terminated.

Sprague-Dawley rats = test: Acute effect on insulin, FFA and TG in rats fed chow or high fat diet for 2 weeks; type: in vivo, rat; settings: 1 mg/kg oral gavage, 4 hr fast
Protocol: FIG. 8 graphically illustrates the time-course of the effect of Compound A on serum (A) insulin, (B) free fatty acids (FFA), and (C) triglycerides (TG) in rats fed normal diet (ND) and high fat diet (HFD) for 2 weeks as discussed in Example 32. Animals were fasted for four hours before the experiment. Compound A was administered via oral gavage at a dose of 1 mg/kg. Values represent mean±SEM from number of animals indicated in the parenthesis for each group.
All experimental procedures were performed under a protocol approved by the IACUC (CV Therapeutics, Inc.) and in accordance with the recommendations set forth in the Guide for the Care and Use of Laboratory Animals published by the National Research Council. Male Sprague-Dawley rats (225-250 gm) with either one or two indwelling catheters (carotid and jugular) were obtained from Charles River Laboratories (Wilmington, Mass.). Animals were housed 1 per cage in a room maintained on a 12 h light/dark cycle (light on 06.00-18.00 h) under constant temperature (22-25° C.) and with ad libitum access to food and water. Rats on normal diet (Chow) were fed standard laboratory chow (12% fat, 60% carbohydrate, and 28% protein) throughout the study, while animals in the high fat (HF) diet group were given a diet (TD88137 from Harlan Teklad, Madison, Wis.) containing 42% fat, 43% carbohydrate, and 15% protein.
The anti-lipolytic effects of Compound A (see chemical name below) were studied in awake rats. On the day of the experiment, animals were put in metabolic cages and left undisturbed to acclimate to the environment for 1-2 hrs. An infusion set (21 G×¾″, 0.8×19 mm U.T.W., 3½″, 9 cm tubing, volume 0.15 ml) was connected to the arterial catheter for blood sampling. A 1% sodium citrate saline solution was used to flush the lines. A pre-treatment blood sample was obtained from each animal to determine baseline values for glucose, insulin, FFA and TG. Blood samples were collected into plasma and serum separator tubes (Becton Dickinson, Franklin Lakes, N.J.) at pre-determined time points. Oral glucose tolerance test (OGTT) was performed by giving 2 gm/kg of glucose load. Compound A was given via an oral gavage 15 minutes prior to the glucose load. For chronic experiments Compound A was administered twice a day via subcutaneous injection at a dose of 5 mg/kg for 2 weeks. An OGTT was performed at the end of two weeks at ˜2 hrs after the last dose of Compound A.
Compound A (2-{6-[((1R,2R)-2-hydroxycyclopentyl)amino]purin-9-yl}(4S,5S,2R,3R)-5-[(2-fluorophenylthio)methyl]oxolane-3,4-diol) was synthesized by the Department of Medicinal and Bio-Organic chemistry of CV Therapeutics, Inc. Sodium citrate was purchased from Sigma (St. Louis, Mo.). PEG 400 was purchased from VWR (by EMD Chemicals). Triton WR1339 was diluted in warm saline (˜37° C.) with frequent vortexing. Compound A was dissolved in. PEG 400, and then diluted with distilled water to make a 20% PEG drug solution. FFA and TGs were measured using commercial kits from Wako Chemicals, (Richmond, Va.). Glucose and Insulin were measured using commercial kits from Thermo Electron Corporation (Waltham, Mass.) and Crystal Chem (Downers Grove, Ill.), respectively.
All data are reported as mean±SEM. Statistical analysis of data from experiments with 2 treatment groups was performed using the unpaired Student's t-test. One way analysis of variance (ANOVA) followed by Newman-Keuls posthoc analysis was used for multiple comparisons. Data form OGTT was analyzed by calculating area under the curve (AUC) using prism graphpad software. Differences between/among treatment groups were considered to be significant when the probability of their occurrence by chance alone was <0.05.

O[C@@H]1[C@H](O)[C@@H](CSc2ccccc2F)O[C@H]1n1cnc2c(N[C@@H]3CCC[C@H]3O)ncnc21 [Compound A, 2-{6-[((1R,2R)-2-hydroxycyclopentyl)amino]purin-9-yl}(4S,5S,2R,3R)-5-[(2-fluorophenylthio)methyl]oxolane-3,4-diol]
glucose levels in OGTT (rats fed high fat diet [1]): did not vary
total integrated plasma insulin levels (AUC) in OGTT (rats fed high fat diet [1]): significantly (p<0.05) lower
fasting FFA concentration vs placebo (rats fed high fat diet [2]): significantly lower
fasting TG concentration vs placebo (rats fed high fat diet [2]): significantly lower
fasting glucose concentration vs placebo (rats fed high fat diet [2]): no significant differences
fasting insulin concentration vs placebo (rats fed high fat diet [2]): significantly lower
decrease in heart rate (calculated as area under the curve) (awake rats; 25 mg/kg oral gavage): 13±1%
effect on heart rate on increasing the dose (awake rats; 50 mg/kg (data not shown)): no further decrease
effect on heart rate (awake rats; 1 and 5 mg/kg oral gavage): did not have a significant effect
effect on blood pressure (awake rats; at the doses used (1, 5, 25 mg/kg oral gavage)): did not have any significant effect
total glucose response area in OGTT (rats fed high fat diet [3]): no differences
total insulin response area (AUC) in OGTT (rats fed high fat diet [3]): significantly (p<0.05) decreased; also recorded: no different than the insulin response of chow-fed rats given vehicle
insulin-mediated glucose disposal / glucose infusion rate (GIR) vs untreated HF mice (C57BL/J6 mice): significant differences (p<0.01); also recorded: significantly greater (p<0.01)
decrease in FFA concentration from 0 to 30 min (Sprague-Dawley rats; Chow rats): 0.24 ± 0.07 mM
decrease in TG concentration from 0 to 30 min (Sprague-Dawley rats; Chow rats): 17 ± 3 mg/dL
decrease in insulin concentration from 0 to 30 min (Sprague-Dawley rats; Chow rats): 0.8 ± 0.32 ng/mL
decrease in FFA concentration from 0 to 30 min (Sprague-Dawley rats; HF rats): 0.65 ± 0.1 mM
decrease in TG concentration from 0 to 30 min (Sprague-Dawley rats; HF rats): 46 ± 15 mg/dL
decrease in insulin concentration from 0 to 30 min (Sprague-Dawley rats; HF rats): 2.37 ± 0.85 ng/mL
